Measured values from patent US4632922A, “Oxomorpholinyl dimer and rescue of anthracycline and mitomycin C damage” (The United States of America as represented by the …, priority 1985, dated 1986).

Tested on: DOX-induced skin ulceration
Experiment: Rescue by DHM3 of DOX-induced skin necrosis (ulceration, induration) in swine
Format: in vivo, miniature white swine
Procedure: In order to produce anthracycline induced tissue damage, clinical grade doxorubicin (DOX) hydrochloride was obtained as a representative anthracycline chemical from the Drug Synthesis Branch, Developmental Therapeutics Program, National Cancer Institute. Each vial contained 10 mg DOX hydrochloride and 50 mg lactose which was reconstituted with 5.0 ml sterile 0.9% NaCl solution to give a final drug concentration of 2.0 mg/ml. DHM3 solution was prepared by dissolving 10 mg in ice-cold water which had been purged with N2 gas for 5 minutes. Dissolution was facilitated by brief sonication to give a final concentration of 10 mg/ml. The solution was kept cold (≈4° C.) and protected from air and light.
Female weanling miniature white swine weighing approximately 12 kg were obtained from the Veterinary Resources Branch, National Institutes of Health. The development of this strain of swine has been described previously (Sachs, et al., Transplantation 22:559-567, 1976). Each animal was housed in a 6×4 ft metabolic cage and was fed standard NIH show chow, 1.5 lbs twice daily.
Each animal was anesthesized by intramuscular injections of ketamine, 20 mg/kg, xylazine, 20 mg/kg, and atropine, 1.0 mg. Following endotracheal intubation anesthesia was maintained with a mixture of nitrous oxide, halothane, and oxygen gas.
DOX HCl (2.0 mg/ml) was administered intradermally (i.d.) with a 25 gauge needle inserted approximately 4 to 5 mm into the skin. Following the injection of 0.5, 0.75 or 1.0 ml (1.0, 1.5, or 2.0 mg, respectively) DOX solution, the syringe was removed from the hub leaving the needle in place. After the indicated time interval, 1.0 ml (10 mg) DHM3 was injected through the same needle and the needle was then removed. Control sites received 1.0 ml sterile water instead of DHM3. The injection sites were along the mid-lateral aspect of each side of the swine and were 4-5 cm apart (6-8 injection sites per side). One animal was used for a dose experiment where DOX, 0.5 ml/site was injected along one side and 1.0 ml/site was injected along the contralateral side. Fifteen minutes later, DHM3 or water was injected into alternating sites as described above. A second animal received DOX, 0.75 ml/site along both sides. DHM3 or water was injected into alternating sites at times varying from 5 to 120 minutes following DOX administration.
All lesions were measured by a single observer with metric calipers three times weekly for two weeks, followed by weekly measurements thereafter. The areas of skin ulceration and induration were estimated by the product of the cross perpendicular diameters. The total toxicity of DOX-induced skin ulceration was determined by calculating the area under the ulceration-time curve (AUC) in mm^2 -days.
In order to assess the extent of tissue injury following intradermal DOX or DHM3, incisional biopsies were performed on representative lesions 6 and 20 days following drug injection. These samples were placed in 10% buffered formalin and processed for examination by standard light microscopy (Pathco Inc., Potomac, MD.).

[1] = DHM3 10 mg 15 min after DOX 2.0 mg i.d.

CC1(CO)COC(=O)C(C)(C2(C)NC(C)(CO)COC2=O)N1 (stereo not drawn) [DHM3, bi(3,5-dimethyl-5-hydroxymethyl-2-oxomorpholin-3-yl)]
extent of skin necrosis [1]: greatly reduced
reduction of peak area size of the ulcer [1]: 80%
time to complete healing (DHM3 10 mg 15 min after DOX 2.0 mg, control 7 weeks): ≤ 5 weeks
AUC (total toxicity of skin ulceration) (DHM3 10 mg i.d. 5 min after DOX 1.5 mg i.d.): 960 mm^2 . days
AUC (total toxicity of skin ulceration) (DHM3 10 mg i.d. 15 min after DOX 1.0 mg i.d., mean of 3 lesions, p < .005): 840 ± 420 mm^2 . days
AUC (total toxicity of skin ulceration) (DHM3 10 mg i.d. 15 min after DOX 1.5 mg i.d.): 2220 mm^2 . days
AUC (total toxicity of skin ulceration) (DHM3 10 mg i.d. 15 min after DOX 2.0 mg i.d., mean of 3 lesions, p < .001): 1020 ± 420 mm^2 . days
AUC (total toxicity of skin ulceration) (DHM3 10 mg i.d. 30 min after DOX 1.5 mg i.d.): 3240 mm^2 . days
AUC (total toxicity of skin ulceration) (DHM3 10 mg i.d. 60 min after DOX 1.5 mg i.d.): 4020 mm^2 . days
AUC (total toxicity of skin ulceration) (DHM3 10 mg i.d. 90 min after DOX 1.5 mg i.d.): 5340 mm^2 . days
AUC (total toxicity of skin ulceration) (DHM3 10 mg i.d. 120 min after DOX 1.5 mg i.d.): 8400 mm^2 . days
protection against DOX injury (DHM3 5 min after DOX): Optimal protection
reduction of the size of surrounding induration (DHM3 after DOX): observed to parallel the ulcer measurements
color change of stained skin (DHM3 injected into DOX site): immediately changed to a rusty brown
reduction of DOX induced injury (DOX 1.0 mg, compared with 2.0 mg): similar
protection against DOX injury (interval greater than 60 min): no protection is observed
protection against DOX injury (interval increased to 60 min): Progressively less protection
protection from skin necrosis (maximal ulcer area and time required for healing) (up to 60 min after i.d. DOX): considerable protection
